Where only a bound is given, the exact number is not on record here.

The values that follow come from patent US20210198269A1, “INHIBITORS OF GLUCOSE TRANSPORTERS (GLUTs)” (LEAD DISCOVERY CENTER GMBH, priority 2018, published 2021).

Holding throughout (format): cell-based
Experiment [1] deals with T1, GLUT1 (Homo sapiens, UniProt P11166).
T1 construct: host or cells: DLD-1 (DLD1) cells
T1 sequence (P11166 1-492): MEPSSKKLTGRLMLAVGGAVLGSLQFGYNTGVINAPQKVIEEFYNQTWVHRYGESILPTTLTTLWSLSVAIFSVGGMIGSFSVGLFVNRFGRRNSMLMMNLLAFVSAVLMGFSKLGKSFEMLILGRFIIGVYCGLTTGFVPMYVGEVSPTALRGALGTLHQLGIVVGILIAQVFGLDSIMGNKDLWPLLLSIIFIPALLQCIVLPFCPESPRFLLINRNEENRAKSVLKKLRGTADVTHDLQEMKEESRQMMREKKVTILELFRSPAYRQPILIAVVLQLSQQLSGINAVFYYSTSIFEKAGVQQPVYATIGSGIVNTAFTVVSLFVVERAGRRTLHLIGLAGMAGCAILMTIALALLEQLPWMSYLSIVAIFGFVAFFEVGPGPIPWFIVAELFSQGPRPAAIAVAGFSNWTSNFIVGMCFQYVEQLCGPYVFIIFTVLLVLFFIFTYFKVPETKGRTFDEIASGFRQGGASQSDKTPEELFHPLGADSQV
In words: GLUT1 transporter activity assay (2-DG uptake) in DLD1 cells. The following applies: DLD1 cell line; read-out: GLUT1 inhibitory activity (IC50). An excerpt: (§1) GLUT 1, 2, 3 and 4 Transporter Activity Assays
(§2) Assays were based on the specificity assays reported by Kapoor et al., Proceedings of the National Academy of Sciences 2016, 113 (17) 4711-4716. For GLUT1, GLUT2, GLUT3 and GLUT4 specificity testing DLD1, CHO-hGLUT2, DLD-1-GLUT1−/− and CHO-hGLUT4 cell lines were used.
(§3) Assay protocols for 2-deoxy-Glucose (2-DG) Uptake Assay with DLD1 or DLD1-Glut1(−/−) cells or 7,000 CHOK1-SLC2A4 cells lines:
(§4) 14,000 DLD1 or DLD1-Glut1(−/−) cells or 7,000 CHOK1-SLC2A4 cells were seeded in black, clear bottom 384-well plates in glucose- and phenolred-free RPMI1640 medium supplemented with 1% FCS and 2 mM L-glutamine and allowed to attach overnight. Next day, cells were washed and incubated with compounds or DMSO and 1 mM 2-DG in glucose- and phenolred-free RPMI1640 medium for 30 min. Cells were then washed and lysed in 0.06 M HCl and 1% CHAPS for 15 min at 65° C. The amount of 2-DG in the lysate was determined by means of enzyme-coupled assay. For this 16 U/mL glucose-6-phosphate dehydrogenase, 0.2 U/mL diaphorase, 0.1 mM NADP^+ and 10 μM resazurin were added to the lysates. Resorufin fluorescence was determined as a measure of 2-DG uptake at ex/em 535/590 nm with a Victor Multilabel plate reader (Perkin Elmer). Blank values were subtracted from all readings and values were normalized to the DMSO control.

In experiment [2] the target is T2, GLUT3 (Homo sapiens, UniProt P11169).
T2 construct: host or cells: DLD-1-GLUT1(-/-) cells
T2 sequence (P11169 1-496): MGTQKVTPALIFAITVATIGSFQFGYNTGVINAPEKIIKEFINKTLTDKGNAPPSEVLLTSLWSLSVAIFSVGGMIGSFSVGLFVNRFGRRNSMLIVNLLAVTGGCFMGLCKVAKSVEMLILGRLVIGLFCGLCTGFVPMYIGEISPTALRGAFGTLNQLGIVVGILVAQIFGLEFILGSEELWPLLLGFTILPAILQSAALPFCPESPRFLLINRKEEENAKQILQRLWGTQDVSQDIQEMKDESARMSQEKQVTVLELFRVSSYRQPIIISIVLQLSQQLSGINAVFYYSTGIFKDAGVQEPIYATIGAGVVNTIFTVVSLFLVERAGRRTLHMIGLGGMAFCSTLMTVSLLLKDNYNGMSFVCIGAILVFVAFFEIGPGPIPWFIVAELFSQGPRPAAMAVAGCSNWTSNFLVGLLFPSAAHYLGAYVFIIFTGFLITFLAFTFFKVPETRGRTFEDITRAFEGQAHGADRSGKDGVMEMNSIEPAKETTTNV
In words: GLUT3 transporter activity assay (2-DG uptake) in DLD-1-GLUT1-/- cells. The following applies: DLD-1-GLUT1-/- cell line; read-out: GLUT3 inhibitory activity (IC50).
Text: as §1, §2, §3, §4

For experiment [3], the target named is T3, GLUT4 (Homo sapiens, UniProt P14672).
T3 sequence (P14672 1-509): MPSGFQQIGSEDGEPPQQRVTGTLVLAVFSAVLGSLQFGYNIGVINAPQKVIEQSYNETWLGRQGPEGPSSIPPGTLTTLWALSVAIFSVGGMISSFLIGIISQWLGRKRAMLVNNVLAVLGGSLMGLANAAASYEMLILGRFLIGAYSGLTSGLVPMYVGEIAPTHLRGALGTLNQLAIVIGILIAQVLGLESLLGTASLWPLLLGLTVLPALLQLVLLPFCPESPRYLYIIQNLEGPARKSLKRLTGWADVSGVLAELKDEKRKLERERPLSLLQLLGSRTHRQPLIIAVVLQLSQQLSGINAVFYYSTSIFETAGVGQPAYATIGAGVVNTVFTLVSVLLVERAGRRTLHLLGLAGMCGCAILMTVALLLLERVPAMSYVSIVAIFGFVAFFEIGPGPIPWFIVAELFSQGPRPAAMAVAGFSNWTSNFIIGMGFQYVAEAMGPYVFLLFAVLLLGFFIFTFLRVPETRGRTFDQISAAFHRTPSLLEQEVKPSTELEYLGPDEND
Put plainly: GLUT4 transporter activity assay (2-DG uptake) in CHO-hGLUT4 cells. The following applies: CHO-hGLUT4 cell line; read-out: GLUT4 inhibitory activity (IC50). The method, then: CHOK1-SLC2A4 cells were generated by transfection of CHOK1 cells with pCMV6-Entry-GLUT4 (Origene #SC125240) using Lipofectamin2000 according to the supplier's instructions. Briefly, 1.5E5 cells/well CHOK1 cells were seeded in 6-well cell culture plates. After overnight incubation, DNA-lipid complexes (2 μg plasmid DNA, DNA:lipid ratio 1:10) were prepared in OptiMEM and then added to the cells. After 5 days incubation, 800 μg G418 was added to the culture medium to generate a stable polyclone. For monoclone selection, single cells were re-plated in 96-well plates, expanded and selected by transgene overexpression and functional performance.
as §1, §2, §3, §4

Experiment [4] relates to HCT116 cells. In words: 2-Deoxy-Glucose (2-DG) uptake assay in HCT116 cells. The following applies: Homo sapiens, HCT-116, 0.5 h, 1 mM 2-DG, 30 min, read-out: IC50 determined for the inhibition of 2-DG uptake in HCT116 cells. How it is done: The 2-DG uptake assay was carried out as described by Yamamoto N. et al. with slight modifications ([…]). Briefly, 40,000 HCT116 or CHO cells were seeded in black, clear bottom 96-well plates and allowed to attach overnight. Cells were incubated with compounds or DMSO and 1 mM 2-DG in glucose-free KRB buffer (20 mM HEPES, 5 mM KH2PO4, 1 mM MgSO4, 1 mM CaCl2), 136 mM NaCl, 0.1% BSA, pH 7.4) for 30 min. In the case of GLUT-4 transfected cells, Insulin (100 μg/mL) was added to the buffer. Cells were then washed and lysed in 0.06 M HCl and 1% CHAPS for 15 min at 65° C. while shaking. The amount of 2-DG in the lysate was determined by means of enzyme-coupled assay. For this 6.4 U/mL glucose-6-phosphate dehydrogenase, 0.2 U/mL diaphorase, 0.1 mM NADP^+ and 0.025 mg/mL resazurin were added to the lysates. Resorufin fluorescence was determined as a measure of 2-DG uptake at ex/em 535/590 nm with a Tecan Infinite M200 plate reader (Tecan). Blank values were subtracted from all readings and values were normalized to the DMSO control.

Experiment [5] deals with T4, GLUT2 (Homo sapiens, UniProt P11168).
T4 sequence (P11168 1-524): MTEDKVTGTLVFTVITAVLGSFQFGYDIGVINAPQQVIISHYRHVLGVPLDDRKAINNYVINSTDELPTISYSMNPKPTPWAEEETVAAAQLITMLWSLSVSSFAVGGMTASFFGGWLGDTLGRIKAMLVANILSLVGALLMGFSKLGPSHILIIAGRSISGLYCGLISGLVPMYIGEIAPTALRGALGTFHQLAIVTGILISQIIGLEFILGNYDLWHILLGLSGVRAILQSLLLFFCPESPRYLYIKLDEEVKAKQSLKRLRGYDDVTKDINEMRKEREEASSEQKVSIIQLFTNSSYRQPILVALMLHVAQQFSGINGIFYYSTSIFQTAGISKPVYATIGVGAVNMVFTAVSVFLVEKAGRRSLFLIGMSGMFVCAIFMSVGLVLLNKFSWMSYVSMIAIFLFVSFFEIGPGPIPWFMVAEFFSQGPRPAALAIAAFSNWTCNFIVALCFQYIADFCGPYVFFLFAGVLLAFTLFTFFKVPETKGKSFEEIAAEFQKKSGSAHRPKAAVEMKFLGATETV
Put plainly: GLUT2 transporter activity assay in CHO-hGLUT2 cells (indirect, intracellular ATP levels). The following applies: CHO-hGLUT2 cell line; read-out: GLUT2 inhibitory activity (IC50).
Text: as §1, §2
Example 8-3: Indirect Measurement of GLUT2 (SLC2A2) Activity by Quantification of Intracellular ATP Levels
A combination of small-molecule inhibitors of mitochondrial electron transport chain and glucose catabolism synergistically suppress ATP production and impair cellular viability (Ulanovskaya et al., 2008, 2011; Liu, et al. 2001). We therefore used CHOK1 cells overexpressing SLC2A2 (CHOK1-SLC2A2) in combination with an oxidative phosphorylation inhibitor (Rotenon) to identify GLUT2 inhibitors. CHOK1-SLC2A2 cells were purchased from creative biogene (catNo: CSC-SC014484) and maintained in RPMI1640 supplemented with 10% FBS and 2 mM L-Glutamine. For the Glut2-ATP-Assay, 7,500 cells were seeded in black, clear bottom 384-well plates directly in glucose- and phenolred-free RPMI1640 medium supplemented with 1% FCS and 2 mM L-glutamine and cultured overnight to reduce intracellular ATP levels. Next day, cells were washed and incubated with […] and compounds or DMSO and 2.5 mM fructose in glucose- and phenolred-free RPMI1640 medium for 40 min. The CellTiter-Glo® Luminescence Viability Assay from Promega was used to measure ATP levels. Luminescence was measured with a Victor Multilabel plate reader (Perkin Elmer). Blank values were subtracted from all readings and values were normalized to the DMSO control.

What is called IC50 is the concentration at which inhibition is half-maximal. Take `Cc1ccc(CCNC(=O)c2cccc(N3C(=O)NC4CC3(C)Oc3c(OCc5ccccc5C)cccc34)c2)cc1` (stereo not drawn) [Compound A02, 3-(2-Methyl-10-((2-methylbenzyl)oxy)-4-oxo-5,6-dihydro-2H-2,6-methanobenzo[g][1,3,5]oxadiazocin-3(4H)-yl)-N-(4-methylphenethyl)benzamide]: the IC50 is 1 to 4 µM in experiment [1], 1 to 4 µM in experiment [2], more than 25 µM in experiment [3] and not above 5 µM in experiment [4].

For the compound `Cc1ccc(CCNC(=O)c2cccc(N3C(=O)NC4CC3(C)Oc3c(OCc5ccc(C(C)(C)C)cc5)cccc34)c2)cc1` (stereo not drawn) [Compound A06, 3-(10-((4-(tert-Butyl)benzyl)oxy)-2-methyl-4-oxo-5,6-dihydro-2H-2,6-methanobenzo[g][1,3,5]oxadiazocin-3(4H)-yl)-N-(4-methylphenethyl)benzamide], the IC50 in experiment [4] was not above 5 µM.

Regarding `CC12CC(NC(=O)N1c1cccc(C(=O)NCCCc3ccccc3)c1)c1cccc(OCc3ccccc3)c1O2` (stereo not drawn) [Compound A33, 3-(10-(benzyloxy)-2-methyl-4-oxo-5,6-dihydro-2H-2,6-methanobenzo[g][1,3,5]oxadiazocin-3(4H)-yl)-N-(3-phenylpropyl)benzamide], the IC50 in experiment [1] was 0.3 to 1 µM; in experiment [5], more than 25 µM; in experiment [2], 0.3 to 1 µM; in experiment [3], 1 to 4 µM.

Regarding `Cc1ccc(OCCNC(=O)c2cccc(N3C(=O)NC4CC3(C)Oc3c(OCc5ccccc5)cccc34)c2)cc1` (stereo not drawn) [Compound A35, 3-(10-(benzyloxy)-2-methyl-4-oxo-5,6-dihydro-2H-2,6-methanobenzo[g][1,3,5]oxadiazocin-3(4H)-yl)-N-(2-(4-methylphenoxy)ethyl)benzamide], the IC50 is 0.3 to 1 µM in experiment [1], more than 25 µM in experiment [5], 0.3 to 1 µM in experiment [2] and 10 to 25 µM in experiment [3].

Turning to `CC12CC(NC(=O)N1c1cccc(C(=O)NCCc3ccccc3)c1)c1cccc(OCc3ccccc3)c1O2` (stereo not drawn) [Compound A36, 3-(10-(benzyloxy)-2-methyl-4-oxo-5,6-dihydro-2H-2,6-methanobenzo[g][1,3,5]oxadiazocin-3(4H)-yl)-N-(phenethyl)benzamide], the IC50 was 0.3 to 1 µM in experiment [1], more than 25 µM in experiment [5], 0.3 to 1 µM in experiment [2] and 4 to 10 µM in experiment [3].

With `COC(=O)c1cccc(N2C(=O)NC3CC2(C)Oc2c(OCc4ccccc4)cccc23)c1` (stereo not drawn) [Compound A37, methyl 3-(10-(benzyloxy)-2-methyl-4-oxo-5,6-dihydro-2H-2,6-methanobenzo[g][1,3,5]oxadiazocin-3(4H)-yl)benzoate], the IC50 in experiment [1] was 1 to 4 µM; in experiment [5], more than 25 µM; in experiment [2] it was 1 to 4 µM; in experiment [3], 10 to 25 µM.
